Reference: article PMC13489962, “Small-molecule modulation of β-arrestins” (Nature, 2026)

Target: T1, βARR1 coupling to pβ2V2R (Rattus norvegicus, UniProt P29066)
T1 construct: βARR1 or βARR2 construct, with their C terminus truncated (at amino acid 393 or 394, respectively); GST (pGEX4T1) (N, cleaved yes); made in house; host or cells: βARR1: E. coli BL21 (DE3) pLysS; receptor: Sf9 membranes, co-expressed with GRK2–CAAX
Assay: [3H]-Fen high-affinity agonist binding promoted by βARR1 at pβ2V2R
Type: biochemical
Conditions: βARR1 2 μM, [3H]-Fen 6 nM, read-out: inhibition of βARR1-mediated stabilization of the high-affinity β2V2R state
Procedure: The N-terminal Flag-tagged T4 lysozyme fusion-β2V2R construct (β2AR residues 1–341 fused to V2R residues 328–372), bearing a TEV cleavage site, was co-expressed with GRK2–CAAX (membrane-anchored GRK2) or wild-type β2AR in Sf9 insect cells using the Baculovirus Expression System, as described previously[44],[62],[63],[68],[69]. At 66 h after infection, cells expressing T4L–β2V2R were stimulated with 20 μM isoproterenol for 20 min at 37 °C to induce receptor phosphorylation (pβ2V2R), while β2AR-expressing cells remained untreated. All cells were washed extensively to remove residual agonist. For membrane preparation from these cells, briefly, cells were resuspended in cold homogenization buffer (75 mM Tris-HCl, pH 7.4, 2 mM EDTA, and cOmplete protease inhibitor) and collected by centrifugation at 500g for 5 min at 4 °C. […]
To assess the effects of β-arrestin modulators on β-arrestin- or Gαs–βγ-promoted high-affinity agonist binding, [^3H]-Fen binding assays were performed using membranes from Sf9 cells expressing phosphorylated β2V2R (pβ2V2R) or β2AR[28]. […] Bound [^3H]-Fen was extracted overnight in scintillation fluid and quantified by scintillation counting. Specific binding was calculated by subtracting nonspecific from total binding.

T1 sequence (P29066 1-393): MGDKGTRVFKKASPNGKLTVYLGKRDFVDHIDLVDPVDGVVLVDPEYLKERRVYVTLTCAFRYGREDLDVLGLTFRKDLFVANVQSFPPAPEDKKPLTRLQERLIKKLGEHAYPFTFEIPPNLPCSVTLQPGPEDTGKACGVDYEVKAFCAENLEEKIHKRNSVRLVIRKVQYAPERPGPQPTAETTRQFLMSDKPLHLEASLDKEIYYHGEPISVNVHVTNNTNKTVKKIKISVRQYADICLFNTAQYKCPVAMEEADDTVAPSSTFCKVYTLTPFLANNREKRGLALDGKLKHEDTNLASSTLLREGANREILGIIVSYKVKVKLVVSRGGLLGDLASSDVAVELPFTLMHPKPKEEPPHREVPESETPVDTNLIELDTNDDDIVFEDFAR

Question: `C=C1C(=O)[C@]23[C@H](O)[C@H]1CC[C@H]2[C@@]12CO[C@]3(O)[C@@H](O)[C@@H]1C(C)(C)CC[C@@H]2O` [Cmpd-5, (1S,4aR,5S,6S,6aR,9S,11aS,11bS,14R)-1,5,6,14-tetrahydroxy−4,4-dimethyl-8-methylenedecahydro-1H-6,11b-(epoxymethano)-6a,9-methanocyclohepta[a]naphthalen-7(8H)-one] was tested. Which inhibition at 100 µM did it give?
Answer: The inhibition at 100 µM was about 40%.
